Experimental data reported in patent US11701372B2, “Inhalation formulations of 1'-cyano substituted carba-nucleoside analogs” (priority 2020, dated 2023).
Where two headings read alike, the source gives them in different places.

How the values were obtained:
[1] = In use testing of reconstituted solutions in IV bags and IV tubings; type: physicochemical
Description: The IV bags and IV tubings were sampled over time and tested for % assay/degradation.

[2] = type: physicochemical; details: for % assay/degs: T = 0
Experimental: For each condition, samples were staged at ambient and refrigerated conditions. Samples were analyzed for % assay/degs, appearance, reconstitution time, pH, and compared to T=0. The structures of the key impurities/metabolites are shown below.

For `N#C[C@@]1(c2ccc3c(N)ncnn23)O[C@H](COP(=O)(O)Oc2ccccc2)[C@@H](O)[C@H]1O` [Compound F], the “% assay/degradation” value ([1]; 30 mg (IV Bag), 2-8° C. 24 h) was 0.07 % w/w, the “% assay/degradation” value ([1]; 30 mg (IV Bag), 2-8° C. 48 h) was 0.06 % w/w and the “% assay/degradation” value ([1]; 30 mg (IV Bag), Ambient 4 h) was 0.06 % w/w. The “% assay/degradation” value ([1]; 30 mg (IV Bag), Ambient 8 h) was 0.07 % w/w, the “% assay/degradation” value ([1]; 30 mg (IV Bag), Ambient 24 h) was 0.08 % w/w and the “% assay/degradation” value ([1]; 30 mg (IV Bag), T = 0 (2-8° C. series)) was 0.06 % w/w. For the same compound, the “% assay/degradation” value ([1]; 30 mg (IV Tube), Ambient 6 Hours) was 0.06 % w/w, the “% assay/degradation” value ([1]; 30 mg in 100 mL 0.9% Saline (IV Bag), T = 0 (Ambient series)) was 0.06 % w/w and the “% assay/degradation” value ([1]; 200 mg (IV Bag), 2-8° C. 24 h) was 0.06 % w/w. The “% assay/degradation” value ([1]; 200 mg (IV Bag), 2-8° C. 48 h) was 0.06 % w/w, the “% assay/degradation” value ([1]; 200 mg (IV Bag), Ambient 4 h) was 0.06 % w/w and the “% assay/degradation” value ([1]; 200 mg (IV Bag), Ambient 8 h) was 0.06 % w/w. For the same compound, the “% assay/degradation” value ([1]; 200 mg (IV Bag), Ambient 24 h) was 0.08 % w/w, the “% assay/degradation” value ([1]; 200 mg (IV Bag), T = 0 (2-8° C. series)) was 0.06 % w/w and the “% assay/degradation” value ([1]; 200 mg (IV Tube), Ambient 6 h) was 0.06 % w/w. The “% assay/degradation” value ([1]; 200 mg in 100 mL 0.9% Saline (IV Bag), T = 0 (Ambient series)) was 0.06 % w/w, the “% assay/degs, difference from T = 0” value ([2]; pH 1.8, 2-8° C., 2 h) was 0.02% and the “% assay/degs, difference from T = 0” value ([2]; pH 1.8, 2-8° C., 3 h) was 0.03%. The “% assay/degs, difference from T = 0” value ([2]; pH 1.8, 2-8° C., 8 h) was 0.08%, the “% assay/degs, difference from T = 0” value ([2]; pH 1.8, 2-8° C., 24 h) was 0.20% and the “% assay/degs, difference from T = 0” value ([2]; pH 1.8, 2-8° C., 48 h) was 0.39%. The “% assay/degs, difference from T = 0” value ([2]; pH 1.8, Ambient, 1 h) was 0.04%, the “% assay/degs, difference from T = 0” value ([2]; pH 1.8, Ambient, 2 h) was 0.08% and the “% assay/degs, difference from T = 0” value ([2]; pH 1.8, Ambient, 3 h) was 0.13%. For the same compound, the “% assay/degs, difference from T = 0” value ([2]; pH 1.8, Ambient, 8 h) was 0.34%, the “% assay/degs, difference from T = 0” value ([2]; pH 1.8, Ambient, 24 h) was 1.05% and the “% assay/degs, difference from T = 0” value ([2]; pH 1.8, Ambient, 48 h) was 2.09%. The “% assay/degs” value ([2]; pH 1.8) was 0.08%, the “% assay/degs, difference from T = 0” value ([2]; pH 2.0, 2-8° C., 2 h) was 0.02% and the “% assay/degs, difference from T = 0” value ([2]; pH 2.0, 2-8° C., 3 h) was 0.02%. The “% assay/degs, difference from T = 0” value ([2]; pH 2.0, 2-8° C., 8 h) was 0.06%, the “% assay/degs, difference from T = 0” value ([2]; pH 2.0, 2-8° C., 24 h) was 0.13% and the “% assay/degs, difference from T = 0” value ([2]; pH 2.0, 2-8° C., 48 h) was 0.25%. The “% assay/degs, difference from T = 0” value ([2]; pH 2.0, Ambient, 1 h) was 0.03%, the “% assay/degs, difference from T = 0” value ([2]; pH 2.0, Ambient, 2 h) was 0.05% and the “% assay/degs, difference from T = 0” value ([2]; pH 2.0, Ambient, 3 h) was 0.08%. For the same compound, the “% assay/degs, difference from T = 0” value ([2]; pH 2.0, Ambient, 8 h) was 0.22%, the “% assay/degs, difference from T = 0” value ([2]; pH 2.0, Ambient, 24 h) was 0.68% and the “% assay/degs, difference from T = 0” value ([2]; pH 2.0, Ambient, 48 h) was 1.37%. For the same compound, the “% assay/degs” value ([2]; pH 2.0) was 0.06%, the “% assay/degs, difference from T = 0” value ([2]; pH 3.5, 2-8° C., 2 h) was 0.00% and the “% assay/degs, difference from T = 0” value ([2]; pH 3.5, 2-8° C., 8 h) was 0.00%. The “% assay/degs, difference from T = 0” value ([2]; pH 3.5, 2-8° C., 24 h) was 0.00%, the “% assay/degs, difference from T = 0” value ([2]; pH 3.5, 2-8° C., 48 h) was 0.01% and the “% assay/degs, difference from T = 0” value ([2]; pH 3.5, 2-8° C., 72 h) was 0.01%. The “% assay/degs, difference from T = 0” value ([2]; pH 3.5, 2-8° C., 96 h) was 0.02%, the “% assay/degs, difference from T = 0” value ([2]; pH 3.5, 2-8° C., 168 h) was 0.03% and the “% assay/degs, difference from T = 0” value ([2]; pH 3.5, Ambient, 2 h) was 0.00%. For the same compound, the “% assay/degs, difference from T = 0” value ([2]; pH 3.5, Ambient, 8 h) was 0.01%, the “% assay/degs, difference from T = 0” value ([2]; pH 3.5, Ambient, 24 h) was 0.03% and the “% assay/degs, difference from T = 0” value ([2]; pH 3.5, Ambient, 48 h) was 0.05%. The “% assay/degs, difference from T = 0” value ([2]; pH 3.5, Ambient, 72 h) was 0.08%, the “% assay/degs, difference from T = 0” value ([2]; pH 3.5, Ambient, 96 h) was 0.11% and the “% assay/degs, difference from T = 0” value ([2]; pH 3.5, Ambient, 168 h) was 0.19%. For the same compound, the “% assay/degs” value ([2]; pH 3.5) was 0.02%, the “% assay/degs, difference from T = 0” value ([2]; pH 3.8, 2-8° C., 7.2 h) was 0.00% and the “% assay/degs, difference from T = 0” value ([2]; pH 3.8, 2-8° C., 24 h) was 0.00%. The “% assay/degs, difference from T = 0” value ([2]; pH 3.8, 2-8° C., 96 h) was 0.01%, the “% assay/degs, difference from T = 0” value ([2]; pH 3.8, 2-8° C., 168 h) was 0.01% and the “% assay/degs, difference from T = 0” value ([2]; pH 3.8, Ambient, 7.2 h) was 0.01%. The “% assay/degs, difference from T = 0” value ([2]; pH 3.8, Ambient, 24 h) was 0.02%, the “% assay/degs, difference from T = 0” value ([2]; pH 3.8, Ambient, 96 h) was 0.06% and the “% assay/degs, difference from T = 0” value ([2]; pH 3.8, Ambient, 168 h) was 0.10%. The “% assay/degs” value ([2]; pH 3.8) was 0.02%, the “% assay/degs, difference from T = 0” value ([2]; pH 4.0, 2-8° C., 7.2 h) was 0.00% and the “% assay/degs, difference from T = 0” value ([2]; pH 4.0, 2-8° C., 24 h) was 0.00%. The “% assay/degs, difference from T = 0” value ([2]; pH 4.0, 2-8° C., 96 h) was 0.01%, the “% assay/degs, difference from T = 0” value ([2]; pH 4.0, 2-8° C., 168 h) was 0.01% and the “% assay/degs, difference from T = 0” value ([2]; pH 4.0, Ambient, 7.2 h) was 0.00%. The “% assay/degs, difference from T = 0” value ([2]; pH 4.0, Ambient, 24 h) was 0.01%, the “% assay/degs, difference from T = 0” value ([2]; pH 4.0, Ambient, 96 h) was 0.04% and the “% assay/degs, difference from T = 0” value ([2]; pH 4.0, Ambient, 168 h) was 0.07%. For the same compound, the “% assay/degs” value ([2]; pH 4.0) was 0.02%.
